Measured values reported in ChEMBL document CHEMBL1201862, “PubChem BioAssay data set” (2004).
The source made the active and inactive calls.

Key:
Mucolipin-3 = Mucolipin-3 (Homo sapiens, UniProt Q8TDD5); test: Dose response cell-based high-throughput screening assay for agonists of the transient receptor potential channel ML3 (TRPML3). [Related pubchem assays: 1526, 1424, 1448 ]; format: functional
Ion channel NompC = Ion channel NompC (Danio rerio, UniProt Q7T1G6); test: Fluorescence counterscreen assay for TRPML3 agonists: dose response cell-based high-throughput screening assay to identify agonists of the transient receptor potential channel N1 (TRPN1). [Related pubchem assays: 1526, 1424, 1448 ]; format: functional
[1] = A High Throughput Confirmatory Assay used to Identify Novel Compounds that Inhibit Mycobacterium Tuberculosis in the absence of Glycerol.; format: functional
[2] = inhibitors of Bluetongue virus cytopathic effect, confirmation, arbovirus, BSR cells (AID 1250); format: functional;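 also: protection from viral cytopathic effect measured as cell viability by ATP luminescence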
Bcl-2-like protein 10 = target: T1, Bcl-2-like protein 10 (Homo sapiens, UniProt Q9HD36); test: displacers of TR3 peptide from Bcl-B, primary screen, selectivity assay for Bfl-1 inhibitor project, biochemical, fluorescence polarization, FITC-TR3 peptide (AID 748);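 also: fluorescence polarization from a fluorescein-labelled TR3 peptide binding purified Bcl-B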
T1 sequence (Q9HD36 whole entry): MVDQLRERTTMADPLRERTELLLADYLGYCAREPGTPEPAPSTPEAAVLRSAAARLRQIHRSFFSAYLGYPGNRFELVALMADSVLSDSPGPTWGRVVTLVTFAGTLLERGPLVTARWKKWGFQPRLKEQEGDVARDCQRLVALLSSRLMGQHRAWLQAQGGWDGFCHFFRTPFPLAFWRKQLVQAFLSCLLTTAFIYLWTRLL

Estrogen receptor beta [3] = target: T2, Estrogen receptor beta (Homo sapiens, UniProt Q92731);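 also: recombinant ER-beta bound to coactivator SRC1 peptide in presence of estradiol agonist; inhibitors block coactivator peptide binding and lower the FRET signal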
Estrogen receptor beta [4] = target: T2, Estrogen receptor beta; test: ERβ–SRC-3 coactivator interaction inhibitors, confirmation, orthogonal assay, biochemical, ELISA, streptavidin-HRP readout (AID 1060)
SUMO E1/E2 = SUMO E1/E2 (Homo sapiens, UniProt P63279+Q9UBE0+Q9UBT2); test: SAR analysis of SUMOylation using HTRF in an in-Vitro dose response assay. [Related pubchem assays (depositor defined):AID2006, AID2011, AID2018, AID2069, AID2658]; format: functional
[5] = target: T3, Voltage-gated N-type calcium channel alpha-1B subunit/Amyloid beta A4 precursor protein-binding family A member 1 (Homo sapiens, UniProt Q00975+Q02410); test: disruptors of Mint-PDZ/N-type channel peptide interaction – biochemical, HTRF, set 2, SAR follow-up (AID 434980); format: functional
[6] = target: T3, Voltage-gated N-type calcium channel alpha-1B subunit/Amyloid beta A4 precursor protein-binding family A member 1; test: disruptors of Mint-PDZ/N-type channel peptide interaction – biochemical, HTRF, SAR follow-up (AID 2489); format: functional
[7] = target: Sphingosine 1-phosphate receptor 2 (Homo sapiens, UniProt O95136); test: Dose Response Cell Based Assay for Agonists of the S1P2 Receptor of Purchased Analogues. [Related pubchem assays: 729, 843, 854, 736 ]; format: functional
[8] = target: T4, Dual specificity protein phosphatase 6 (Rattus norvegicus, UniProt Q64346); test: MKP-3 phosphatase inhibitors, primary screen, biochemical, rat enzyme, in vitro (AID 425)
T4 sequence (Q64346 whole entry): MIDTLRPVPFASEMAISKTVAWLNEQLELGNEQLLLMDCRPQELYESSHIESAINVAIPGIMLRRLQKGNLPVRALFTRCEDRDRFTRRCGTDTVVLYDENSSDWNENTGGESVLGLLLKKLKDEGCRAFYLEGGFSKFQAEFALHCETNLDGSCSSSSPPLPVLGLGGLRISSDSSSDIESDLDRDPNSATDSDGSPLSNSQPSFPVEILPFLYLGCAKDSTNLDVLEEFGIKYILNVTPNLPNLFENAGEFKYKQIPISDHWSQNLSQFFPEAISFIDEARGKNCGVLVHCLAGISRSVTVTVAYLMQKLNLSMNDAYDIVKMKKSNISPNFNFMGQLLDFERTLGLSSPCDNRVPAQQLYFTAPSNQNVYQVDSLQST

[9] = target: T5, Apoptotic protease-activating factor 1 (Homo sapiens, UniProt O14727); format: functional
T5 sequence (O14727 whole entry): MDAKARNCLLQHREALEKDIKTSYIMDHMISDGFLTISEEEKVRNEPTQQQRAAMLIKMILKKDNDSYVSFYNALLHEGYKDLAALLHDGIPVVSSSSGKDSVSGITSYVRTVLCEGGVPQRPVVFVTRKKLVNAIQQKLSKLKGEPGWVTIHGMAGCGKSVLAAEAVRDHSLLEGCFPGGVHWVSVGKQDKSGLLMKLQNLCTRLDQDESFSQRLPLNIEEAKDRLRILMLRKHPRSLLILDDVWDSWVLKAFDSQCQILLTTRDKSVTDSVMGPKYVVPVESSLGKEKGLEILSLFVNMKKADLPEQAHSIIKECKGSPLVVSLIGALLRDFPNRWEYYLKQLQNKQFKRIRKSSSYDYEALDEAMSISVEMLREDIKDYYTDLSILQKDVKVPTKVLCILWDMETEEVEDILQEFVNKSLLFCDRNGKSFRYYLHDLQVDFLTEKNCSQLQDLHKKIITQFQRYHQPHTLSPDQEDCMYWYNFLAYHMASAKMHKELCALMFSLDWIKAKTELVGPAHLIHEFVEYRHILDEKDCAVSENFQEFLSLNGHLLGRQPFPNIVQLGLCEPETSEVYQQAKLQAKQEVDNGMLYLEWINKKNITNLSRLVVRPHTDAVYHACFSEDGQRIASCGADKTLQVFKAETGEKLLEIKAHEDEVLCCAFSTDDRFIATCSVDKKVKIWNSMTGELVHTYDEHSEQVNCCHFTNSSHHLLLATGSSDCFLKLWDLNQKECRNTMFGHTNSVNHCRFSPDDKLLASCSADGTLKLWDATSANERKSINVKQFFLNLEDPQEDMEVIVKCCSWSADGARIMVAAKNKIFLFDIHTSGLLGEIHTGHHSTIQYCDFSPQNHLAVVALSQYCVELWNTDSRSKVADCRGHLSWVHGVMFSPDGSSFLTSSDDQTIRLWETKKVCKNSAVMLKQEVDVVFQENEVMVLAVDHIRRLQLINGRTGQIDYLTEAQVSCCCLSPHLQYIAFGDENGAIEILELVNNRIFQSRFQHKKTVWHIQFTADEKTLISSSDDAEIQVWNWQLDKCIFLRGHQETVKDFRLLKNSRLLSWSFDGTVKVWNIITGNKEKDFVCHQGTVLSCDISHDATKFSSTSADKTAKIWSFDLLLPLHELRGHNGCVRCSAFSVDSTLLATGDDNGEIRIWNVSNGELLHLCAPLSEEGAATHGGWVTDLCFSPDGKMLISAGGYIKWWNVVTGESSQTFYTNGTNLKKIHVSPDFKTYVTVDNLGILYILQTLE

[10] = target: T6, Histone-lysine N-methyltransferase NSD2 (Homo sapiens, UniProt O96028); format: biochemical
T6 sequence (O96028 whole entry): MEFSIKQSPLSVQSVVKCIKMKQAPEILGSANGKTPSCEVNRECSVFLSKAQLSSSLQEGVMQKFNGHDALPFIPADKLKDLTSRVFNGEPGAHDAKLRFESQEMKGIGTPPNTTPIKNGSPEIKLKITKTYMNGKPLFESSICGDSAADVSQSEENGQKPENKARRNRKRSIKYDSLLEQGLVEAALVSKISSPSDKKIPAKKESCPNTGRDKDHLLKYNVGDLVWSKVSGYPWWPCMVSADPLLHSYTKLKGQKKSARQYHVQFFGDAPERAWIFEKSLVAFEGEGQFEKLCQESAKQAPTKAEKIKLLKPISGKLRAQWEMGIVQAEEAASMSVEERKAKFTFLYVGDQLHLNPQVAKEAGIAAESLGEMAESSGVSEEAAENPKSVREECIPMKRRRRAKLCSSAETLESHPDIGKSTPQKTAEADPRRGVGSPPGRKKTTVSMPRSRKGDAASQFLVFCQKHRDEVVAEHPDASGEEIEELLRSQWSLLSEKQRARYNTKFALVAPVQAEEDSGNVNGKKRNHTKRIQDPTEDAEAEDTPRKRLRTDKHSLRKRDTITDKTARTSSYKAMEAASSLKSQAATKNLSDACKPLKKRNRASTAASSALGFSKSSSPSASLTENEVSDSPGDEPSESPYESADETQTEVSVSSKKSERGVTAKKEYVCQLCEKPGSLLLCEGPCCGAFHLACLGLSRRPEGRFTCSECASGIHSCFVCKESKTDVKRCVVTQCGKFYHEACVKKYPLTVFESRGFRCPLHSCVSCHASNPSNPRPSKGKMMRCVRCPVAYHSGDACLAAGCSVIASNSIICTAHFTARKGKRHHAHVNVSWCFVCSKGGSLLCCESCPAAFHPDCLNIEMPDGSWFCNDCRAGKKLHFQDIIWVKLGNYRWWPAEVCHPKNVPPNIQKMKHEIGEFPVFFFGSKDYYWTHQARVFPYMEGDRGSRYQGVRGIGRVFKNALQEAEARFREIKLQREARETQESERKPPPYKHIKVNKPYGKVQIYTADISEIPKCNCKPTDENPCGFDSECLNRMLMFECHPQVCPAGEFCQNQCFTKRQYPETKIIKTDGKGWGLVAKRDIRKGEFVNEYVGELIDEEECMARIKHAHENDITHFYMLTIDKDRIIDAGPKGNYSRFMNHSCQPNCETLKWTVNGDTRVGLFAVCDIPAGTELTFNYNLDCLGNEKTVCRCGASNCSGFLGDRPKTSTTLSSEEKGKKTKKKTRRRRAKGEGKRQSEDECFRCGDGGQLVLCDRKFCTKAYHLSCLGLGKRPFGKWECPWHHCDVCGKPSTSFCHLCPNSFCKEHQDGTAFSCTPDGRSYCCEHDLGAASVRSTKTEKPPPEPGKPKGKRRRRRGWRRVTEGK

[11] = target: T7, RNA-editing ligase 1, mitochondrial (Trypanosoma brucei brucei, UniProt P86926); test: TbREL1 ligase inhibitors, dose response, biochemical, fluorescence, Trypanosoma brucei (AID 1117295); format: functional
T7 sequence (P86926 whole entry): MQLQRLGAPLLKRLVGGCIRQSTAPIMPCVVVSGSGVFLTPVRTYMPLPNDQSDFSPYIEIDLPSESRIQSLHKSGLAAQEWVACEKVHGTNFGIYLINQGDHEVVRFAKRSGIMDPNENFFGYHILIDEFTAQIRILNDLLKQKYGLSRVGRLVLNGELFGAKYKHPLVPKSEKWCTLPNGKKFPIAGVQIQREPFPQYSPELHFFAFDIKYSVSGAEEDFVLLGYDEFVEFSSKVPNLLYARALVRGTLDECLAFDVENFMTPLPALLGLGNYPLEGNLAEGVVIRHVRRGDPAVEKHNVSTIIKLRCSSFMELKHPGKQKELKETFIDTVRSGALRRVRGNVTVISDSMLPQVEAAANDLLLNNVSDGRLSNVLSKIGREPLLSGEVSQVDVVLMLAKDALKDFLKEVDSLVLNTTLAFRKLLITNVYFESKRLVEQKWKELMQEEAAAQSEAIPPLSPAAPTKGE

[12] = microbe, parasite or virus in culture; format: functional; details: Mycobacterium tuberculosis
Estrogen receptor = target: T8, Estrogen receptor (Homo sapiens, UniProt P03372);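 also: potency for inhibiting coactivator peptide recruitment to the receptor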
T8 sequence (P03372 whole entry): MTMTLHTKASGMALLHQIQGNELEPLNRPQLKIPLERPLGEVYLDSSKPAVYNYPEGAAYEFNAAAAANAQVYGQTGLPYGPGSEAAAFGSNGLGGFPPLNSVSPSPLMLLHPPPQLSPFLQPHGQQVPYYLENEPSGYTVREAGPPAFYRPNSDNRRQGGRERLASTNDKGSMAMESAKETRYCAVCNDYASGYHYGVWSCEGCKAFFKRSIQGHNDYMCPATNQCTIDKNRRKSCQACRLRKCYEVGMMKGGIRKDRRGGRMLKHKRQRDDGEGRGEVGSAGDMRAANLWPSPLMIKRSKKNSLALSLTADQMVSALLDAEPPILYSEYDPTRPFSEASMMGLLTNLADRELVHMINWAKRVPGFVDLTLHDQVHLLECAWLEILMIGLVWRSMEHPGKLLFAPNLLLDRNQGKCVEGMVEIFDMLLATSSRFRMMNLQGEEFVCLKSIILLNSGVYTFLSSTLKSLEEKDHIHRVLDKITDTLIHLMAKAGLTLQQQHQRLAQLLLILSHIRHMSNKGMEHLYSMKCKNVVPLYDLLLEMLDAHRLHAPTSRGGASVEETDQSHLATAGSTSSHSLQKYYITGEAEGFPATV

T2 sequence (Q92731 whole entry): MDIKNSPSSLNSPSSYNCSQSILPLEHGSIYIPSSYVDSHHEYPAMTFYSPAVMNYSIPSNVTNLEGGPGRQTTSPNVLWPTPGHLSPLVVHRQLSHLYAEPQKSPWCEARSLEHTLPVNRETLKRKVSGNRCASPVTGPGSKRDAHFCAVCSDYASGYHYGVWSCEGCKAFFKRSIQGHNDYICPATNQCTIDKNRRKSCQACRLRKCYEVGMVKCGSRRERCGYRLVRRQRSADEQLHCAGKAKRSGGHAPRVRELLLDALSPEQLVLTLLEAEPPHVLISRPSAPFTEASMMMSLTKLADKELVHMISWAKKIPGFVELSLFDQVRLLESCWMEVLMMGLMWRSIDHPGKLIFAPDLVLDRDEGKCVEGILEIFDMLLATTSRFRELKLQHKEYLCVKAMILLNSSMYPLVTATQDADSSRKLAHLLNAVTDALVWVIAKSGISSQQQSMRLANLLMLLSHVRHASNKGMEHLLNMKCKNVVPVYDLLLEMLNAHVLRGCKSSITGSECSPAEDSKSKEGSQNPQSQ
Chain of Sphingosine 1-phosphate receptor 2 (O95136 whole entry): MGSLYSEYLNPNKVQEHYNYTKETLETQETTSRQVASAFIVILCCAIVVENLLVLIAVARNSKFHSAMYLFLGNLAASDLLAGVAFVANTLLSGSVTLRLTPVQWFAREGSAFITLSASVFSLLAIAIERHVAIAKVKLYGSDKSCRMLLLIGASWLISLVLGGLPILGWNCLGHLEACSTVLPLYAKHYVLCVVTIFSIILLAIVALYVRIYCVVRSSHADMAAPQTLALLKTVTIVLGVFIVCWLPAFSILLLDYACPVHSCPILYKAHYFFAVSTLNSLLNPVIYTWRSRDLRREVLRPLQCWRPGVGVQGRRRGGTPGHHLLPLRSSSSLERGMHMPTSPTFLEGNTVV
Chain of Ion channel NompC (Q7T1G6 whole entry): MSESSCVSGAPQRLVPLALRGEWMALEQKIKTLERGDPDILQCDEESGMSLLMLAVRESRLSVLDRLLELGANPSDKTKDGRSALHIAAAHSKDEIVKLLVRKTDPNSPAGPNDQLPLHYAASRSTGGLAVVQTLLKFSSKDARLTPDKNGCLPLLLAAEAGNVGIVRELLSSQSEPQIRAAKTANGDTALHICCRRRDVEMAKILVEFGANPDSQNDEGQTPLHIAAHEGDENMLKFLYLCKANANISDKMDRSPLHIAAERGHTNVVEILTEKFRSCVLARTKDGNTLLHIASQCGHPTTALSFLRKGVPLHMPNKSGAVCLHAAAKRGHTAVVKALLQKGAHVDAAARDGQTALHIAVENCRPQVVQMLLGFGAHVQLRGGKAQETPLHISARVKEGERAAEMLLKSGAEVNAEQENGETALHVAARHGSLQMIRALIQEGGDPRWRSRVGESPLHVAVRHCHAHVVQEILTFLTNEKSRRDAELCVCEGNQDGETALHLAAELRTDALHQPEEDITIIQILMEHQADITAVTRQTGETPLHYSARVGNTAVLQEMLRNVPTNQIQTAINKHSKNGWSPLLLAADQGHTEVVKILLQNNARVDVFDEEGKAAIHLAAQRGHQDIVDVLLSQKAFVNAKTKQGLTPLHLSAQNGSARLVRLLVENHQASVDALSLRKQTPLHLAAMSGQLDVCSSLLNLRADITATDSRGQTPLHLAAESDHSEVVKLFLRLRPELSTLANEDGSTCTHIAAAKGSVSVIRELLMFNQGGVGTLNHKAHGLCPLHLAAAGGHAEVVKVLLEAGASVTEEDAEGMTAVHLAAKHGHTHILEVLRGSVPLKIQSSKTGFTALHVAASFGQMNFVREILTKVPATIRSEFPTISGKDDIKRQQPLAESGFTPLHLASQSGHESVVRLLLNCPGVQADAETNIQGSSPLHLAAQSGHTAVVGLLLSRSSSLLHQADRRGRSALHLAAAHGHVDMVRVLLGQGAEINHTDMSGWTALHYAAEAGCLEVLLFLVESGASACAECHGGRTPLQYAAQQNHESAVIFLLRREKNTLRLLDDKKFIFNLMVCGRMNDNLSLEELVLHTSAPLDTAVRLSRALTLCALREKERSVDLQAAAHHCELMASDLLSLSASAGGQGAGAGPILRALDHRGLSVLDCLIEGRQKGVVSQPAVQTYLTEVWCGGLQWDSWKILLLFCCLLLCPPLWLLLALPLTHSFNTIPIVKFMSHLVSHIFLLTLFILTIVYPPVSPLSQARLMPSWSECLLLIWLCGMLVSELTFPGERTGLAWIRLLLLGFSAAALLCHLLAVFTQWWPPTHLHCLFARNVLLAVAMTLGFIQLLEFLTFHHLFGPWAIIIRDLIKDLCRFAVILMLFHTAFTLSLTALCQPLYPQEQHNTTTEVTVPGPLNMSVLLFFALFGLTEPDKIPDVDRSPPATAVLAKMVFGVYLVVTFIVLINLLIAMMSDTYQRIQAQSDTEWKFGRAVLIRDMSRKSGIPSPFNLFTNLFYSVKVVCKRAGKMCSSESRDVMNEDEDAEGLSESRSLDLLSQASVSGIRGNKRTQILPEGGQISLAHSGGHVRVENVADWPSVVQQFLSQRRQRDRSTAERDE
Chain of Mucolipin-3 (Q8TDD5 whole entry): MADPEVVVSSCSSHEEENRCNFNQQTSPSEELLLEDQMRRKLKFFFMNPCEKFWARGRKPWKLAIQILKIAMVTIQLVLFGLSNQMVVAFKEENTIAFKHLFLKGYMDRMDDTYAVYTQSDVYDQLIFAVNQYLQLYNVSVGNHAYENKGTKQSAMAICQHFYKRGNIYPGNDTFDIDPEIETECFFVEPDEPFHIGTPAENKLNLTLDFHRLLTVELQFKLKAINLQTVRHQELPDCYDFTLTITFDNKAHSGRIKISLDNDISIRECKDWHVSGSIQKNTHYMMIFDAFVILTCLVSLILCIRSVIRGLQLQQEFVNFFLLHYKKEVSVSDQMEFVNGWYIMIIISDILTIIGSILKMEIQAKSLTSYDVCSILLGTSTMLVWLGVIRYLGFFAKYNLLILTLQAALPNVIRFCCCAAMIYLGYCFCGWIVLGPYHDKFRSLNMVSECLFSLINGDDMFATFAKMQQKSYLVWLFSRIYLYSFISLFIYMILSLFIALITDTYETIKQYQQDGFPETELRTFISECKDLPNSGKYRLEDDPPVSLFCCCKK
Chain of SUMO E1/E2 (Q9UBE0 whole entry): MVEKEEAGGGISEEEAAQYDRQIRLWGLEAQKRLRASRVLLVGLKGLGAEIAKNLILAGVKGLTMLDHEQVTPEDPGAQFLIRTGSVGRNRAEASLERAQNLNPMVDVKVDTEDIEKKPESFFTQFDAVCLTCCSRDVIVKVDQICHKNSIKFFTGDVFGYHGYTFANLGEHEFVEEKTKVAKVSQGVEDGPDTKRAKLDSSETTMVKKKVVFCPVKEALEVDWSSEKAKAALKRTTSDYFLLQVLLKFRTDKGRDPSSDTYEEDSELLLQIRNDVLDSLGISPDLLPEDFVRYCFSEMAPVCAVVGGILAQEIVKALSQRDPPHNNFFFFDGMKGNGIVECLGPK
Chain of SUMO E1/E2 (Q9UBT2 whole entry): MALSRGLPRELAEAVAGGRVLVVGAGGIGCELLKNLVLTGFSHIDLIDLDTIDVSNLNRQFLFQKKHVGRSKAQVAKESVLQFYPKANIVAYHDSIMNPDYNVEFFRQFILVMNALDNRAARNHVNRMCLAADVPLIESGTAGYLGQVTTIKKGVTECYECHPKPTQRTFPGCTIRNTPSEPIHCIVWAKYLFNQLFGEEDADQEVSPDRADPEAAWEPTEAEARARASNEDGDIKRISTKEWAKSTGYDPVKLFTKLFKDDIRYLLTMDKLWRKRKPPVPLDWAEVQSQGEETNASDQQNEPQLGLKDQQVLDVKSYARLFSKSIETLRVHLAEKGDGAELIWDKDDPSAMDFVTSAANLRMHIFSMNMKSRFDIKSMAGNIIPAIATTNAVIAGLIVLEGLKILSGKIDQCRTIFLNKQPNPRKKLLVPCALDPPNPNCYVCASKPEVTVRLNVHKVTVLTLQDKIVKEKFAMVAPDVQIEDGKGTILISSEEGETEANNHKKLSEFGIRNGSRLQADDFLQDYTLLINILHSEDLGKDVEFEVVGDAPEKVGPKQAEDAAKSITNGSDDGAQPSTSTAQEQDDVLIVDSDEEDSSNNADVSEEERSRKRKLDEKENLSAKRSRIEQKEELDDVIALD
Chain of SUMO E1/E2 (P63279 whole entry): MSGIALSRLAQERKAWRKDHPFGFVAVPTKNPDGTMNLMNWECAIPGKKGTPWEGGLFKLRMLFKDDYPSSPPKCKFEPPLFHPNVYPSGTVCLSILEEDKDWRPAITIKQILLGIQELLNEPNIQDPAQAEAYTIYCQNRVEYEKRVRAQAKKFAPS

Structure (SMILES): CN(c1ccccc1)S(=O)(=O)c1cccc(Cl)c1Cl
- EC50 (Mucolipin-3): 4.52 µM (active)
- EC50 (Ion channel NompC): > 29.9 µM (not active)

Structure (SMILES): Cn1c(=O)n(Cc2ccccc2)c(=O)c2c1nc1n2CCCN1C1CCCCC1
- IC50 [1]: > 100 µM (active)

Structure (SMILES): CCOC(=O)c1cnc2c(-c3ccc(F)cc3)cnn2c1C(F)(F)F
- IC50 [2]: 23.1 µM (active)

Structure (SMILES): COc1cccc(CN(CC2CCCO2)S(=O)(=O)c2ccc(S(=O)(=O)N(C)C)cc2)c1 (stereo not drawn)
- EC50 (Mucolipin-3): > 29.9 µM (not active)
- EC50 (Ion channel NompC): > 29.9 µM (not active)

Structure (SMILES): O=C(Nc1ccccc1N1CCOCC1)c1cc(-c2ccco2)nc2ccccc12
- IC50 (Bcl-2-like protein 10): 95.1 µM (inactive)
- IC50 (Estrogen receptor beta [3]): 3.78 µM (active)
- IC50 (Estrogen receptor beta [4]): 1.04 µM (not active)
- IC50 (SUMO E1/E2): 48.2 µM (active)
- IC50 [5]: 9.81 µM (active)
- IC50 [6]: 39.3 µM (active)

Structure (SMILES): Cc1cc(C(=O)CN2C(=O)C(=O)N(C)C2=O)c(C)n1Cc1ccccc1
- EC50 [7]: 22.3 µM (not active)

Structure (SMILES): CCCCNC(=O)c1c(N)n(CCCOC)c2nc3ccccc3nc12
- IC50 [8]: > 100 µM (not active)
- IC50 [9]: 27.7 µM (active)
- AC50 [10]: 8.05 µM (active)
- IC50 [11]: 17.9 µM (inactive)

Structure (SMILES): Cc1cc(C(=O)COC(=O)Cn2cnc3ccccc3c2=O)c(C)n1Cc1ccccc1
- EC50 [7]: > 30 µM (not active)

Structure (SMILES): COc1ccc([C@H]2CC(=O)C=C(c3ccc4c5c(cccc35)CC4)C2)cc1
- IC50 [1]: > 100 µM (active)
- CC50 [12]: > 40 µM (active)

Structure (SMILES): CCOC(=O)C1=c2/c(=C/c3ccccc3OC)c(N)c(C#N)n2C(=O)C(c2ccccc2OC)S1 (stereo not drawn)
- IC50 (Estrogen receptor): 9.8 µM (active)
- IC50 (Estrogen receptor beta [3]): > 50 µM (not active)
- IC50 (Estrogen receptor beta [4]): 78.5 µM (not active)
